In US20090062243A1, “Lupane-Type Triterpenoids Modified at 30-Position and Analogues Thereof” (ADVANCED LIFE SCIENCES, INC., priority 2007, published 2009):

Legend:
Format in all cases: cell-based
[1] = test system: SK-MEL-2 (melanoma); assay: MTS cell viability assay, SK-MEL-2
Experimental: (§1) Cells were plated, the evening before treatment, for each treatment on 96-well plates (1×10^4 cells/well) in 100 μL volume per well. Analog solutions were prepared by diluting each test compound in DSMO (10 mM) with the appropriate cell growth media for each individual cell line, or in “Universal Media” if several cell lines were to be assayed in parallel, immediately prior to cell treatment. Universal Media consisted of 5 mL sodium pyruvate (100× liquid stock, MediaTech), 5 mL glucose (100×, 45% liquid stock, MediaTech), 5 mL Penicillin/Streptomycin (100× liquid stock, MediaTech), 10 mL sodium bicarbonate (50× liquid stock, MediaTech), 25 mL Fetal Calf Serum, 1.25 mL insulin (4 mg/mL, Gibco) and […] RPMI media with 2 mM L-glutamine for a total volume of 500 mL.
(§2) Cells were treated by aspirating plating media from each well and adding 80 μL of betulinic acid (control) or each analog solution in serial dilutions to the adherent cells. All treatments were performed in triplicate. Growth media (80 μL) was added to 3 blank wells (no cells) to measure background from the growth media. Growth media alone (no DMSO or test compound) was added to 3 wells containing cells to measure the baseline MTS activity. Vehicle (DMSO) control in serial dilutions, added to cells, was also included to monitor basal toxicity from DMSO. Cells were incubated at 37° C. for 72 h, or 120 h for the OVCAR cell lines. MTS reagent (per 96-well plate) were prepared by combining 2 mL of MTS working solution (Cell Titer AQueous Non-Radioactive Cell Proliferation Assay, Promega, cat#G1112), 100 μL of 0.92 mg/mL phenazine methosulfate/Dulbecco's PBS and 2.1 mL growth media. MTS reagent (40 μL) were added to each well and incubated at 37° C. for 1.5 to 4 h. Plates were gently shaken by hand until solution in each well appeared homogenous. Absorbances at 490 nm were measured on a Wallac Victor II plate reader at multiple time points following the addition of MTS reagent for each plate. Triplicate absorbance (490 nm) measurements were averaged following background (no cell) subtraction for each drug concentration. Percent Cell Viability was calculated for each drug concentration using the following equation:
(§3) {[Absorbance(analog treated)]/[Absorbance(DMSO treated)]}×100%
(§4) Cytotoxicity dose response for the triterpenoid derivatives synthesized in SK-MEL-2 (melanoma), A-375 (melanoma), Daoy (glioblastoma), LN-229 (glioblastoma), OVCAR-3 (ovarian carcinoma), HT-29 (colon carcinoma), MCF-7 (breast carcinoma) cell lines using the standard MTS assay is summarized in Table 1. In Table 1, compounds 22a-d and compounds 23a-c refer to structures 22 and 23 in Scheme 5, respectively. Compounds 24aa-an and 24ba-bq refer to structure 24 in Scheme 6. Compounds 26a-e refer to structure 26 in Scheme 6. Compounds 36a-c refer to structure 36 in Scheme 10.

[2] = test system: Daoy; assay: MTS cell viability assay, Daoy; conditions: cells incubated 72 h
Experimental: as §1, §2, §3, §4

[3] = test system: LN-229 (glioblastoma); assay: MTS cell viability assay, LN-229
Experimental: as §1, §2, §3, §4

[4] = test system: OVCAR-3 (ovarian carcinoma); assay: MTS cell viability assay, OVCAR-3; conditions: Homo sapiens, OVCAR-3, 120 h for the OVCAR cell lines
Experimental: as §1, §2, §3, §4

[5] = test system: HT-29 (colon carcinoma); assay: MTS cell viability assay, HT-29
Experimental: as §1, §2, §3, §4

[6] = test system: MCF-7 (breast carcinoma); assay: MTS cell viability assay, MCF-7
Experimental: as §1, §2, §3, §4

[7] = test system: A-375 (melanoma); assay: MTS cell viability assay, A-375
Experimental: as §1, §2, §3, §4

[8] = Homo sapiens, SK-MEL-2, cells incubated 72 h
[9] = Homo sapiens, LN-229, cells incubated 72 h
[10] = Homo sapiens, HT-29, cells incubated 72 h
[11] = Homo sapiens, MCF7, cells incubated 72 h
[12] = Homo sapiens, A-375, cells incubated 72 h

C=C(CO)[C@@H]1CC[C@]2(COC3CCCCO3)CC[C@]3(C)[C@H](CC[C@@H]4[C@@]5(C)CCC(=O)C(C)(C)[C@@H]5CC[C@]43C)[C@@H]12 (stereo partly drawn) [Compound 5]
IC50 [1, 8]: 34 µM
IC50 ([2]; Homo sapiens, Daoy): 35 µM
IC50 [3, 9]: 46 µM
IC50 [4]: 48 µM
IC50 [5, 10]: 75 µM
IC50 [6, 11]: 37 µM

C=C(C=O)[C@@H]1CC[C@]2(COC3CCCCO3)CC[C@]3(C)[C@H](CC[C@@H]4[C@@]5(C)CCC(=O)C(C)(C)[C@@H]5CC[C@]43C)[C@@H]12 (stereo partly drawn) [Compound 9a]
IC50 [1, 8]: 7 µM
IC50 [7, 12]: < 3 µM
IC50 ([2]; Homo sapiens, Daoy): 7 µM
IC50 [4]: 9 µM
IC50 [5, 10]: 9 µM
IC50 [6, 11]: 32 µM

C=C(C=O)[C@@H]1CC[C@]2(CO)CC[C@]3(C)[C@H](CC[C@@H]4[C@@]5(C)CCC(=O)C(C)(C)[C@@H]5CC[C@]43C)[C@@H]12 [Compound 9b]
IC50 [1, 8]: 16 µM
IC50 [7, 12]: 18 µM
IC50 ([2]; Homo sapiens, Daoy): 16 µM
IC50 [3, 9]: 20 µM
IC50 [4]: 6 µM
IC50 [5, 10]: 52 µM
IC50 [6, 11]: 56 µM

C=C(C(OC)OC)[C@@H]1CC[C@]2(CO)CC[C@]3(C)[C@H](CC[C@@H]4[C@@]5(C)CCC(=O)C(C)(C)[C@@H]5CC[C@]43C)[C@@H]12 [Compound 10]
IC50 [1, 8]: 17 µM
IC50 [7, 12]: 7 µM
IC50 ([2]; Homo sapiens, Daoy): 17 µM
IC50 [3, 9]: 24 µM
IC50 [4]: 45 µM
IC50 [5, 10]: 15 µM
IC50 [6, 11]: 17 µM

C=C(C=O)[C@@H]1CC[C@]2(COC(C)=O)CC[C@]3(C)[C@H](CC[C@@H]4[C@@]5(C)CCC(=O)C(C)(C)[C@@H]5CC[C@]43C)[C@@H]12 [Compound 14a]
IC50 [1, 8]: 12 µM
IC50 [7, 12]: 16 µM
IC50 ([2]; Homo sapiens, Daoy): 7 µM
IC50 [3, 9]: 9 µM
IC50 [4]: 4 µM
IC50 [5, 10]: 46 µM
IC50 [6, 11]: 56 µM

C=C(COS(C)(=O)=O)[C@@H]1CC[C@]2(CO)CC[C@]3(C)[C@H](CC[C@@H]4[C@@]5(C)CCC(=O)C(C)(C)[C@@H]5CC[C@]43C)[C@@H]12 [Compound 21b]
IC50 [1, 8]: > 75 µM
IC50 [7, 12]: 21 µM
IC50 ([2]; Homo sapiens, Daoy): > 75 µM
IC50 [3, 9]: 46 µM
IC50 [4]: > 75 µM
IC50 [5, 10]: 17 µM
IC50 [6, 11]: 54 µM

C=C(CNCCO)[C@@H]1CC[C@]2(CO)CC[C@]3(C)[C@H](CC[C@@H]4[C@@]5(C)CCC(=O)C(C)(C)[C@@H]5CC[C@]43C)[C@@H]12 [Compound 22b]
IC50 [1, 8]: 45 µM
IC50 [7, 12]: 10 µM
IC50 ([2]; Homo sapiens, Daoy): 47 µM
IC50 [3, 9]: 16 µM
IC50 [4]: 67 µM
IC50 [5, 10]: 45 µM
IC50 [6, 11]: 47 µM

C=C(CO)[C@@H]1CC[C@]2(COC3CCCCO3)CC[C@]3(C)[C@H](CC[C@@H]4[C@@]5(C)CCC(N)C(C)(C)[C@@H]5CC[C@]43C)[C@@H]12 (stereo partly drawn) [Compound 24aa]
IC50 [1, 8]: 5 µM
IC50 [7, 12]: 0.89 µM
IC50 ([2]; Homo sapiens, Daoy): 4 µM
IC50 [3, 9]: 4 µM
IC50 [4]: 15 µM
IC50 [5, 10]: 12 µM
IC50 [6, 11]: 6 µM

C=C(CO)[C@@H]1CC[C@]2(COC3CCCCO3)CC[C@]3(C)[C@H](CC[C@@H]4[C@@]5(C)CCC(NCCO)C(C)(C)[C@@H]5CC[C@]43C)[C@@H]12 (stereo partly drawn) [Compound 24ac]
IC50 [1, 8]: 15 µM
IC50 [7, 12]: 13 µM
IC50 ([2]; Homo sapiens, Daoy): 15 µM
IC50 [3, 9]: 11 µM
IC50 [4]: 7 µM
IC50 [5, 10]: 60 µM
IC50 [6, 11]: 36 µM

C=C(CO)[C@@H]1CC[C@]2(CO)CC[C@]3(C)[C@H](CC[C@@H]4[C@@]5(C)CCC(NCCO)C(C)(C)[C@@H]5CC[C@]43C)[C@@H]12 (stereo partly drawn) [Compound 24ad]
IC50 [1, 8]: 34 µM
IC50 [7, 12]: 16 µM
IC50 ([2]; Homo sapiens, Daoy): 29 µM
IC50 [3, 9]: 37 µM
IC50 [4]: 39 µM
IC50 [5, 10]: 65 µM
IC50 [6, 11]: 41 µM

C=C(CO)[C@@H]1CC[C@]2(COC3CCCCO3)CC[C@]3(C)[C@H](CC[C@@H]4[C@@]5(C)CCC(NCCOC)C(C)(C)[C@@H]5CC[C@]43C)[C@@H]12 (stereo partly drawn) [Compound 24ae]
IC50 [1, 8]: 34 µM
IC50 [7, 12]: 6 µM
IC50 ([2]; Homo sapiens, Daoy): 28 µM
IC50 [3, 9]: 17 µM
IC50 [4]: 17 µM
IC50 [5, 10]: 19 µM
IC50 [6, 11]: 16 µM

C=C(CNCCO)[C@@H]1CC[C@]2(CO)CC[C@]3(C)[C@H](CC[C@@H]4[C@@]5(C)CCC(NCCc6ccc(O)cc6)C(C)(C)[C@@H]5CC[C@]43C)[C@@H]12 (stereo partly drawn) [Compound 24bf]
IC50 ([1]; cells incubated 72 h): 5 µM
IC50 ([7]; cells incubated 72 h): 2 µM
IC50 [2]: 1 µM
IC50 ([3]; cells incubated 72 h): 14 µM
IC50 ([5]; cells incubated 72 h): < 2 µM
IC50 ([6]; cells incubated 72 h): 4 µM

C=C(CNCCO)[C@@H]1CC[C@]2(COC3CCCCO3)CC[C@]3(C)[C@H](CC[C@@H]4[C@@]5(C)CCC(NCCO)C(C)(C)[C@@H]5CC[C@]43C)[C@@H]12 (stereo partly drawn) [Compound 24bg]
IC50 ([1]; cells incubated 72 h): 5 µM
IC50 ([7]; cells incubated 72 h): < 2 µM
IC50 [2]: 5 µM
IC50 ([3]; cells incubated 72 h): 18 µM
IC50 ([5]; cells incubated 72 h): 3 µM
IC50 ([6]; cells incubated 72 h): 4 µM

C=C(CNCCO)[C@@H]1CC[C@]2(CO)CC[C@]3(C)[C@H](CC[C@@H]4[C@@]5(C)CCC(NCCO)C(C)(C)[C@@H]5CC[C@]43C)[C@@H]12 (stereo partly drawn) [Compound 24bh]
IC50 ([1]; cells incubated 72 h): 7 µM
IC50 ([7]; cells incubated 72 h): 6 µM
IC50 [2]: 13 µM
IC50 ([3]; cells incubated 72 h): 16 µM
IC50 ([5]; cells incubated 72 h): 2 µM
IC50 ([6]; cells incubated 72 h): 6 µM

C=C(CNCCO)[C@@H]1CC[C@]2(CO)CC[C@]3(C)[C@H](CC[C@@H]4[C@@]5(C)CCC(NC6CCC(O)CC6)C(C)(C)[C@@H]5CC[C@]43C)[C@@H]12 (stereo partly drawn) [Compound 24bj]
IC50 ([1]; cells incubated 72 h): 5 µM
IC50 ([7]; cells incubated 72 h): 7 µM
IC50 [2]: 5 µM
IC50 ([3]; cells incubated 72 h): 16 µM
IC50 ([5]; cells incubated 72 h): 2 µM
IC50 ([6]; cells incubated 72 h): 4 µM

C=C(CO)[C@@H]1CC[C@]2(COC3CCCCO3)CC[C@]3(C)[C@H](CC[C@@H]4[C@@]5(C)C=CC(=O)C(C)(C)[C@@H]5CC[C@]43C)[C@@H]12 (stereo partly drawn) [Compound 28]
IC50 [1, 8]: 19 µM
IC50 [7, 12]: 18 µM
IC50 ([2]; Homo sapiens, Daoy): 16 µM
IC50 [4]: 30 µM
IC50 [5, 10]: 19 µM
IC50 [6, 11]: 5 µM

CC(CNCCO)[C@@H]1CC[C@]2(COC3CCCCO3)CC[C@]3(C)[C@H](CC[C@@H]4[C@@]5(C)CCC(O)C(C)(C)[C@@H]5CC[C@]43C)[C@@H]12 (stereo partly drawn) [Compound 36a]
IC50 [1, 8]: 4 µM
IC50 [7, 12]: 5 µM
IC50 ([2]; Homo sapiens, Daoy): 4 µM
IC50 [3, 9]: 28 µM
IC50 [5, 10]: 5 µM
IC50 [6, 11]: 7 µM
